# In ChEMBL document CHEMBL1130294, “Subsite requirements for peptide aldehyde inhibitors of human calpain I” (Bioorg Med Chem Lett, 1997):
# pIC50: −log10 of the molar value. Non-standard residues stand in square brackets, D forms with d. Residues, ends and D or L forms follow the SMILES beside them. *: point of attachment. Tic = O=C(O)[C@@H]1Cc2ccccc2CN1; Cha = N[C@@H](CC1CCCCC1)C(=O)O; Tle = CC(C)(C)[C@H](N)C(=O)O; Nle = CCCC[C@H](N)C(=O)O; Abu = CC[C@H](N)C(=O)O; Cbz = O=C(OCc1ccccc1)*; Boc = CC(C)(C)OC(=O)*; Bn = c1ccc(C*)cc1; OtBu = CC(C)(C)O*; tBu = CC(C)(C)*
# Target: T1, Calpain-1 catalytic subunit (Homo sapiens, UniProt P07384)
# T1 sequence (P07384 whole entry): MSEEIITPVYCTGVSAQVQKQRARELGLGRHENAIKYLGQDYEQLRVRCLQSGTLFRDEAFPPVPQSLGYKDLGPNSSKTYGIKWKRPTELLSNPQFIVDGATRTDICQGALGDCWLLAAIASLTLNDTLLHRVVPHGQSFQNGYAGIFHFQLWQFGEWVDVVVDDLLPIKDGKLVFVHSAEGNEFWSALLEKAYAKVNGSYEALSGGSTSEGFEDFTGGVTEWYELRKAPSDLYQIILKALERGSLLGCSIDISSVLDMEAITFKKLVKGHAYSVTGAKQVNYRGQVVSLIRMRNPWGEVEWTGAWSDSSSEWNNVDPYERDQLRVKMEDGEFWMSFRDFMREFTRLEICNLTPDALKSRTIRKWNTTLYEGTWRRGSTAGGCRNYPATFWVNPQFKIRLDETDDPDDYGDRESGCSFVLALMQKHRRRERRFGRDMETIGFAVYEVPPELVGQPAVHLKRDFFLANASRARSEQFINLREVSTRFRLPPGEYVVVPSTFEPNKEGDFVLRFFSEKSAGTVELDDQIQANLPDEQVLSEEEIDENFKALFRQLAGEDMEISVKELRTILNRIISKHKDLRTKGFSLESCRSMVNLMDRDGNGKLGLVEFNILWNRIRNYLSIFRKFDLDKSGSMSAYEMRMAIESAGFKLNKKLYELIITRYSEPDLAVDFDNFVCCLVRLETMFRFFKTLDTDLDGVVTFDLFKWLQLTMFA
# Assay: Inhibitory activity evaluated against recombinant human calpain 1
row,Compound,pIC50
1,CC(C)C[C@@H](C=O)NC(=O)[C@H](CC(C)C)N(C)C(=O)OCc1ccccc1,< 5.00
2,CC(C)C[C@@H](C=O)NC(=O)[C@H](CC(C)C)NC(=O)OCC1c2ccccc2-c2ccccc21,7.96
3,CCCC[C@H](NC(=O)OCc1ccccc1)C(=O)N[C@H](C=O)CC(C)C,7.48
4,CC(C)C[C@@H](C=O)NC(=O)[C@H](CC(C)C)NC(=O)[C@H](CC(C)C)NC(=O)c1ccc2ccccc2c1,8.00
5,CC(C)C[C@H](NC(=O)OCc1ccccc1)C(=O)NCCC=O,< 5.00
6,CC(C)C[C@@H](C=O)NC(=O)[C@@H](NC(=O)OCc1ccccc1)[C@H](C)O,6.72
7,CC(C)C[C@@H](C=O)NC(=O)[C@H](CC(C)C)NC(=O)/C=C\C(=O)O,~5.00
8,CC(C)C[C@@H](C=O)NC(=O)CCNC(=O)OCc1ccccc1,< 5.00
9,CC(C)C[C@@H](C=O)NC(=O)[C@H](CC(C)C)NC(=O)c1ccccc1C(=O)O,< 6.00
10,CC(C)C[C@H](NC(=O)OCc1ccccc1)C(=O)N(C)[C@H](C=O)CC(C)C,< 6.00
11,CC(=O)N[C@@H](CC(C)C)C(=O)N[C@@H](CC(C)C)C(=O)N[C@H](C=O)CC(C)C,7.82
12,CC(C)C[C@@H](C=O)NC(=O)[C@H](CC(C)C)NC(=O)OCc1ccc([N+](=O)[O-])cc1,8.10
13,CC(=O)N[C@@H](CC(C)C)C(=O)N[C@H](C=O)CC(C)C,6.89
14,CC(C)C[C@@H](C=O)NC(=O)[C@H](CC(C)C)NC(=O)OCc1ccccc1,8.10
15,CC(=O)N[C@@H](CC(C)C)C(=O)N[C@@H](CC(C)C)C(=O)N[C@@H](C=O)CC(C)C,7.21
16,CC(C)C[C@H](C=O)NC(=O)OCc1ccccc1,5.00
17,CC(C)C[C@H](NC(=O)OCc1ccccc1)C(=O)N[C@H](CC=O)Cc1ccccc1,< 6.00
18,CC(=O)N[C@@H](CC(C)C)C(=O)N[C@@H](CC(C)C)C(=O)N[C@H](C=O)CCCNC(=N)N,7.14
19,CC(=O)N[C@@H](C)C(=O)N[C@@H](CC(C)C)C(=O)N[C@H](C=O)CC(C)C (Ac-Ala-Leu-Leu-aldehyde),7.74
20,CC(=O)N[C@@H](CC(C)C)C(=O)N[C@@H](CC(C)C)C(=O)N[C@H](C=O)CCC(=O)OC(C)(C)C (Ac-Leu-Leu-Glu(OtBu)-aldehyde),5.96
21,CC(=O)N[C@@H](CC(C)C)C(=O)N[C@@H](CC(C)C)C(=O)NCC=O (Ac-Leu-Leu-Gly-aldehyde),~6.00

row,Compound,pIC50
1,CC(=O)N[C@@H](CC(C)C)C(=O)N[C@@H](CC(C)C)C(=O)N[C@H](C=O)CCCCNC(=O)OC(C)(C)C (Ac-Leu-Leu-Lys(Boc)-aldehyde),7.48
2,CC(=O)N[C@@H](CC(C)C)C(=O)N[C@@H](CC(C)C)C(=O)N[C@H](C=O)Cc1ccccc1 (Ac-Leu-Leu-Phe-aldehyde),7.49
3,CC(=O)N[C@@H](CC(C)C)C(=O)N[C@@H](CC(C)C)C(=O)N[C@H](C=O)Cc1c[nH]c2ccccc12 (Ac-Leu-Leu-Trp-aldehyde),6.82
4,CCCC[C@@H](C=O)NC(=O)[C@H](CC(C)C)NC(=O)[C@H](CC(C)C)NC(C)=O (Ac-Leu-Leu-[Nle]-aldehyde),7.92
5,CC(=O)N[C@@H](COC(C)(C)C)C(=O)N[C@@H](CC(C)C)C(=O)N[C@H](C=O)CC(C)C (Ac-Ser(tBu)-Leu-Leu-aldehyde),7.43
6,CC(=O)N[C@H](C(=O)N[C@@H](Cc1ccccc1)C(=O)N[C@H](C=O)CC(C)C)C(C)C (Ac-Val-Phe-Leu-aldehyde),6.96
7,CC(C)C[C@@H](C=O)NC(=O)[C@H](CC(C)C)NC(=O)[C@H](CC(C)C)NC(=O)[C@H](C)NC(=O)OCc1ccccc1 (Cbz-ALLL-aldehyde),8.22
8,CC(C)C[C@@H](C=O)NC(=O)[C@H](CC(C)C)NC(=O)[C@H](C)NC(=O)OCc1ccccc1 (Cbz-Ala-Leu-Leu-aldehyde),8.30
9,CC(C)C[C@@H](C=O)NC(=O)[C@H](CCC(N)=O)NC(=O)OCc1ccccc1 (Cbz-Gln-Leu-aldehyde),6.43
10,CC(C)C[C@@H](C=O)NC(=O)[C@H](CC(C)C)NC(=O)[C@H](CCC(=O)OC(C)(C)C)NC(=O)OCc1ccccc1 (Cbz-Glu(OtBu)-Leu-Leu-aldehyde),7.60
11,CC(C)C[C@@H](C=O)NC(=O)[C@H](CC(C)C)NC(=O)[C@H](CCC(=O)O)NC(=O)OCc1ccccc1 (Cbz-Glu-Leu-Leu-aldehyde),7.40
12,CC(C)C[C@@H](C=O)NC(=O)[C@H](CC(C)C)NC(=O)[C@H](CC(C)C)NC(=O)[C@H](Cc1c[nH]cn1)NC(=O)OCc1ccccc1 (Cbz-HLLL-aldehyde),7.77
13,CC[C@H](C)[C@H](NC(=O)OCc1ccccc1)C(=O)N[C@H](C=O)CC(C)C (Cbz-Ile-Leu-aldehyde),7.39
14,CC(C)C[C@@H](C=O)NC(=O)[C@H](C)NC(=O)[C@H](CC(C)C)NC(=O)OCc1ccccc1 (Cbz-Leu-Ala-Leu-aldehyde),7.05
15,CC(C)C[C@H](NC(=O)OCc1ccccc1)C(=O)N[C@@H](C)C=O (Cbz-Leu-Ala-aldehyde),6.92
16,CC(C)C[C@@H](C=O)NC(=O)[C@H](CCC(=O)O)NC(=O)[C@H](CC(C)C)NC(=O)OCc1ccccc1 (Cbz-Leu-Glu-Leu-aldehyde),5.92
17,CC(C)C[C@@H](C=O)NC(=O)CNC(=O)[C@H](CC(C)C)NC(=O)OCc1ccccc1 (Cbz-Leu-Gly-Leu-aldehyde),~5.00
18,CC(C)C[C@H](NC(=O)OCc1ccccc1)C(=O)NCC=O (Cbz-Leu-Gly-aldehyde),6.52
19,CC(C)C[C@H](NC(=O)OCc1ccccc1)C(=O)N[C@H](C=O)Cc1cnc[nH]1 (Cbz-Leu-His-aldehyde),7.82
20,CC(C)C[C@@H](C=O)NC(=O)[C@H](CC(C)C)NC(=O)[C@H](CC(C)C)NC(=O)OCc1ccccc1 (Cbz-Leu-Leu-Leu-aldehyde),7.72
21,CC(C)C[C@@H](C=O)NC(=O)[C@H](CCCCN)NC(=O)[C@H](CC(C)C)NC(=O)OCc1ccccc1 (Cbz-Leu-Lys-Leu-aldehyde),~5.00

row,Compound,pIC50
1,CSCC[C@@H](C=O)NC(=O)[C@H](CC(C)C)NC(=O)OCc1ccccc1 (Cbz-Leu-Met-aldehyde),7.48
2,CC(C)C[C@@H](C=O)NC(=O)[C@H](Cc1ccccc1)NC(=O)[C@H](CC(C)C)NC(=O)OCc1ccccc1 (Cbz-Leu-Phe-Leu-aldehyde),7.17
3,CC(C)C[C@H](NC(=O)OCc1ccccc1)C(=O)N[C@H](C=O)Cc1ccccc1 (Cbz-Leu-Phe-aldehyde),8.00
4,CC(C)C[C@@H](C=O)NC(=O)[C@H](Cc1c[nH]c2ccccc12)NC(=O)[C@H](CC(C)C)NC(=O)OCc1ccccc1 (Cbz-Leu-Trp-Leu-aldehyde),7.35
5,CC(C)C[C@H](NC(=O)OCc1ccccc1)C(=O)N[C@H](C=O)Cc1ccc(OCc2ccccc2)cc1 (Cbz-Leu-Tyr(Bn)-aldehyde),8.15
6,CC(C)C[C@H](NC(=O)OCc1ccccc1)C(=O)N[C@H](C=O)C(C)C (Cbz-Leu-Val-aldehyde),8.40
7,CC[C@@H](C=O)NC(=O)[C@H](CC(C)C)NC(=O)OCc1ccccc1 (Cbz-Leu-[Abu]-aldehyde),8.00
8,CC(C)C[C@H](NC(=O)OCc1ccccc1)C(=O)N[C@H](C=O)CC1CCCCC1 (Cbz-Leu-[Cha]-aldehyde),7.96
9,CC(C)C[C@H](NC(=O)OCc1ccccc1)C(=O)N[C@H](C=O)C(C)(C)C (Cbz-Leu-[Tle]-aldehyde),7.46
10,CC(C)C[C@@H](C=O)NC(=O)[C@H](CC(C)C)NC(=O)[C@H](CCCCN)NC(=O)OCc1ccccc1 (Cbz-Lys-Leu-Leu-aldehyde),7.70
11,CC(C)C[C@@H](C=O)NC(=O)[C@H](CC(C)C)NC(=O)[C@H](Cc1ccccc1)NC(=O)OCc1ccccc1 (Cbz-Phe-Leu-Leu-aldehyde),7.96
12,CC(C)C[C@@H](C=O)NC(=O)[C@H](Cc1ccccc1)NC(=O)OCc1ccccc1 (Cbz-Phe-Leu-aldehyde),6.64
13,CC(C)C[C@@H](C=O)NC(=O)[C@H](CC(C)C)NC(=O)[C@H](COC(C)(C)C)NC(=O)OCc1ccccc1 (Cbz-Ser(tBu)-Leu-Leu-aldehyde),7.92
14,CC(C)C[C@@H](C=O)NC(=O)[C@H](CO)NC(=O)OCc1ccccc1 (Cbz-Ser-Leu-aldehyde),6.28
15,CC(C)C[C@@H](C=O)NC(=O)[C@H](Cc1c[nH]c2ccccc12)NC(=O)OCc1ccccc1 (Cbz-Trp-Leu-aldehyde),6.92
16,CC(C)C[C@@H](C=O)NC(=O)[C@H](CC(C)C)NC(=O)[C@H](Cc1ccc(O)cc1)NC(=O)OCc1ccccc1 (Cbz-Tyr-Leu-Leu-aldehyde),8.10
17,CC(C)C[C@@H](C=O)NC(=O)[C@H](Cc1ccc(O)cc1)NC(=O)OCc1ccccc1 (Cbz-Tyr-Leu-aldehyde),< 6.00
18,CC(C)C[C@@H](C=O)NC(=O)[C@@H](NC(=O)OCc1ccccc1)C(C)C (Cbz-Val-Leu-aldehyde),7.54
19,CC(C)C[C@@H](C=O)NC(=O)[C@H](Cc1ccccc1)NC(=O)[C@@H](NC(=O)OCc1ccccc1)C(C)C (Cbz-Val-Phe-Leu-aldehyde),7.51
20,CC(C)C[C@@H](C=O)NC(=O)[C@H](CC1CCCCC1)NC(=O)OCc1ccccc1 (Cbz-[Cha]-Leu-aldehyde),6.24
21,CC(C)C[C@@H](C=O)NC(=O)[C@H](CC(C)C)NC(=O)[C@@H]1Cc2ccccc2CN1C(=O)OCc1ccccc1 (Cbz-[Tic]-Leu-Leu-aldehyde),7.82
